Data as given in US20080286388A1, “Pharmaceutical Composition and Non Dependence Coffee Comprising Edible Carboxylic Acid and/or Its Acid Salts and Coffeine” (priority 2004, published 2008).
Several values for one entry are separate records, joined by “and”; a condition that tells them apart may be missing. Identical values can stand only once. Counter-ions that a name gives are not always drawn. Like-named read-outs stand apart in the source and are kept apart here.

Key:
mice = assay: Anti-delayed type allergy reaction, oxazolone ear inflammation; assay type: in vivo, mouse; conditions: drug 2.0 w/v % in oxazolone acetone solution, 10 μl on right ear, 24 hr; for Inhibiting rate (%) (adding 0.1 w/v % of drug): with 0.1 w/v % of caffeine; for Inhibiting rate (%) (non-caffeine added): without caffeine
Method: The weights of testing mice are ranging from 20 g to 30 g. They are coated with 0.1 ml of oxazolone alcohol solution (0.5 w/v %) on the hair cleaned part of abdomen. […] After 24 hr, the mouse is killed by ether and punched a circle area of a diameter of 5.5 mm on both right and left ears in corresponding part by a puncher machine (portions of drug coated and the blank). The punched portions are weighed and the inflammation rates calculated. The control group are coated only with the oxazolone acetone solution (0.5 w/v %). The inflammation inhibiting rates of each drug are calculated by following equation: Inflammation inhibiting rate (%)=[(weight of drug-coated right ear)−(weight of non-drug-coated left ear)]×100%/(weight of non-drug-coated left ear)

[1] = test system: mouse's leaching cell solution (abdominal cavity cells), histamine release by 48/80 compound; assay: Drug inhibiting effect on histamine leaching from mouse abdominal cavity cells treated with 48/80 compound; assay type: cell-based; conditions: testing drug 100 μg/ml; for inhibition at 100 µg/mL: Mus musculus
Method: This is a comparative testing for drug depressing effect on the amount of leaching histamines when is treated with 48/80 (Sigma, St. MO, USA) compound.
(1). Preparation of Leaching Cell Solution from Mouse Body.
A mouse is killed and bloodletting. Then 10 ml of Locke's solution containing 0.1% bovine serum protein is injected into its abdominal cavity. After abdominal cavity being light massaged, the cavity is cut and the Locke's solution is removed. Cavity is washed with another 5 ml of Locke's solution, and this washed solution is added to the latter one. This combined solution is centrifuged at 600 rpm for 5 minutes. The sediments are washed with 5 ml of cool Locke's solution. Adding 3 ml of cold Locke's solution to the washed sediments, then a leached cell solution of abdominal cavity is obtained. (The composition of Locke's solution is: NaCL […], KCL 0.2%, CaCL2 0.15%, glucose 1.0%, in w/v, and the rest distillated water.)
(2). Drug Inhibiting Effect on the Amount of Leaching Histamines when Treated with 48/80 Compound.
1.0 ml of each of those solutions in last term is mixed with 0.3 ml of mouse's leaching cell solution and 0.5 ml of Locke's solution. This mixture is cultivated at 37° C. for 5 minutes. Then adding 0.2 ml of Locke's solution of 48/80 compound (1 mg/100 ml) and cultivated at 37° C. for 10 minutes. Then the reaction is stopped by cooling, and centrifuged at 2,500 rpm for 10 minutes. 1.7 ml of decanted solution and 0.3 ml of sediments are obtained.
0.1 ml of water and 0.2 ml of 100% trichloroacetic acid are added to the decanted solution. 1.5 ml of Locke's solution and 0.2 ml of 100% trichloroacetic acid are added to the sediments washed solution. They are cultivated at room temperature for 30 minutes. After cultivation, the mixtures are centrifuged at 3,000 rpm for 15 minutes, respectively. 0.35 ml of each of the former two solutions is sampled. In each sample, 1.65 ml of water, 0.4 ml of 1N NaOH and 0.1 ml of 0.5% OPT (o-phthalic aldehyde) in methanol are added and cultivated at room temperature for 4 minutes. The reaction is stopped by adding 0.2 ml of 2M citric acid. And finally, determine the amount of released histamines in the tested solution by fluorescence method. By the analysis, results of the inhibiting rate of histamines could be calculated.
Locke's solution is instead of each drug in control group, and instead of both drug and 48/80 compound solution in blank group.
The histamine releasing rate (A) can be calculated by following equation. […] Where (Hs) is the total amount of histamine in the decanted solution, and (Hr) is the total amount of histamine in the sediment. (A)=[(Hs)/{(Hs)+(Hr)}]×100%. Then the inhibiting rate is:
=100−[(A−A in blank group)/(A−A in control group)]×100%.

person = assay: Tests for increase the ability of learning and memory; assay type: in vivo, human; conditions: three pieces of 600 mg, average of four tests before and after ingesting; for change in vivo at 1800 mg: Homo sapiens, po, read-out: Increase rate (%) of memory ability
Method: A person administrates see a random series of 100 numbers, typed by PC, for 10 minutes and memory it. Then recite and write down the memorized number series. To check the recited series with the original one to see how many numbers are correct. In each testing at least has 10 minutes interval, and repeat four times. […] Each kind of drugs testing is done in half day, morning or afternoon only. The testing results were counted by one correct number for one point. Make the average value of four times testing of before and after drug ingesting, respectively. The increase of learning or memory ability is calculated by following equation and listed in Table 14: Rate of increase of memory ability=[(average value of four time testing before ingesting drug)−(average value of four times testing after ingesting drug)]×100%/(average value of four time testing before ingesting drug)

[2] = test system: patients with toothache caused by a crowned tooth swelling; assay: Analgesia and suppuration for tooth; assay type: in vivo, human; conditions: 2 g every two hours
Excerpt: It is not a best method in treating a toothache caused by a crowned tooth swelling that the ill tooth must be extracted or the crown must be destructed first. […] About 8 and 10 days were needed to suppurate and recovery completely when they could chew again. This method can keep the ill tooth without extraction.

[3] = adding 5% of coffee extract, read-out: inhibiting rate (%) (adding 5% of coffee extract)
[4] = non adding coffee extract, read-out: Inhibiting rate (%) (non adding coffee extract)

Structure (SMILES) | Inhibiting rate (%) (adding 0.1 w/v % of drug) (mice) | Inhibiting rate (%) (non-caffeine added) (mice) | inhibition at 100 µg/mL [1, 3] | inhibition at 100 µg/mL [1, 4] | change in vivo at 1800 mg (person) | Days needed to suppurate and recovery completely ([2]; one value per patient) | Toothache pain ([2]; two patients) | inhibiting rate (%) (adding 5% of coffee extract) ([1]; adding 5% of coffee extract) | Inhibiting rate (%) (non adding coffee extract) ([1]; non adding coffee extract) | Increase rate (%) of memory ability (person)
O=C(O)CC(O)(CC(=O)O)C(=O)O [Citric acid] | 100% | 100% | 100% | 100% | 360% | – | – | – | – | –
O=C(O)CC(O)C(=O)O (stereo not shown) [Malic acid] | 100% | 96% | 100% | 100% | 315% | About 8 days and ~10 days | pains were killed | – | – | –
CN(C)CCOC(c1ccccc1)c1ccccc1 [Diphenhydramine hydrochloride, reference compound] | 20% | 20% | 50.4% | 32.1% | – | – | – | – | – | –
O=C(O)C=C(CC(=O)O)C(=O)O [aconitic acid] | – | – | 40% | 100% | 315% | – | – | – | – | –
CC(O)C(=O)O (stereo not shown) [Lactic acid] | 98% | 97% | 100% | 100% | 280% | – | – | – | – | –
O=C(O)/C=C/C(=O)O [Fumaric acid] | 100% | 98% | 100% | 100% | 300% | – | – | – | – | –
O=C(O)CO [α-hydroxy ethanoic acid] | – | – | – | – | – | – | – | 100% | 100% | 300%
O=C(O)C(O)C(O)C(=O)O (stereo not shown) [Tartaric acid] | 99% | 97% | 100% | 100% | 305% | – | – | – | – | –
